This note sets out measurements from ChEMBL document CHEMBL5252631, “A pharmacophore-based approach to demonstrating the scope of alcohol dehydrogenases” (Bioorg Med Chem, 2023).

Test [1] in a line: Substrate activity at ADH101 (unknown origin) assessed as specific enzyme activity using NADH as cofactor at 2.5 to 10 mM measured for 30 mins in presence of Tris HCL buffer by UV-Vis spectroscopy analysis. As to conditions: dose 2.5-10 mM.
Test [2] in a line: Substrate activity at ADH105 (unknown origin) assessed as specific enzyme activity using NADH as cofactor at 2.5 to 10 mM measured for 30 mins in presence of Tris HCL buffer by UV-Vis spectroscopy analysis. As to conditions: Homo sapiens, dose 2.5-10 mM.
A short description of test [3]: Substrate activity at ADH19 (unknown origin) assessed as specific enzyme activity using NADPH as cofactor at 2.5 to 10 mM measured for 30 mins in presence of Tris HCL buffer by UV-Vis spectroscopy analysis. As to conditions: Homo sapiens, dose 2.5-10 mM.
Test [4] can be described thus: Substrate activity at ADH20 (unknown origin) assessed as specific enzyme activity using NADPH as cofactor at 2.5 to 10 mM measured for 30 mins in presence of Tris HCL buffer by UV-Vis spectroscopy analysis. As to conditions: Homo sapiens, dose 2.5-10 mM.
Test [5] in a line: Substrate activity at ADH61 (unknown origin) assessed as specific enzyme activity using NADPH as cofactor at 2.5 to 10 mM measured for 30 mins in presence of Tris HCL buffer by UV-Vis spectroscopy analysis. Particulars: Homo sapiens, dose 2.5-10 mM.
A short description of test [6]: Substrate activity at ADH150 (unknown origin) assessed as specific enzyme activity using NADPH as cofactor at 2.5 to 10 mM measured for 30 mins in presence of Tris HCL buffer by UV-Vis spectroscopy analysis. Particulars: Homo sapiens, dose 2.5-10 mM.
Test [7] can be described thus: Substrate activity at ADH105 (unknown origin) assessed as specific enzyme activity using NADH as cofactor at 2.5 to 10 mM measured for 30 mins in presence of 20% hexane-Tris HCL buffer by UV-Vis spectroscopy analysis. Particulars: dose 2.5-10 mM.

On to `COc1ccc2c(c1)CCCC2=O`, for which the Activity amounted to 6.9 nmol/min/mg in test [1]; 9 nmol/min/mg in test [2]; 14.3 nmol/min/mg in test [3]; 31.3 nmol/min/mg in test [4]; 56.4 nmol/min/mg in test [5]; 7.83 nmol/min/mg in test [6]. The Activity in test [7] came to 36 nmol/min/mg.
